Converted amounts (≈) assume the structure as drawn.
Columns and labels:
S. cerevisiae = test: MIC against S. cerevisiae; format: cell-based; details: Saccharomyces cerevisiae
E. coli deletion mutants = test: Chemical genomic profiling in E. coli deletion mutants; format: cell-based, Escherichia coli
Procedure: Chemical genomic profiling was also performed in Escherichia coli to further investigate the mechanism of action of ecteinamycin. Similar to the chemical genomic profiling with yeast, ecteinamcyin was screened against over 6,000 deletion mutant E. coli strains, genomic DNA was extracted, and mutant-specific DNA barcodes were amplified and sequenced by Illumina sequencing. Ecteinamycin sensitive and resistant mutants were determined by quantification of DNA-barcodes in order to provide a chemical genomic profile to aid in evaluating the mechanism of action (Table 7).

VRE (ATCC) = test: MIC, dilution antimicrobial susceptibility test; format: cell-based, Vancomycin-resistant Enterococcus; details: Enterococcus
Procedure: (§1) Ecteinamycin was tested for antibacterial activity against C. difficile (ATCC BAA-1870), MRSA (ATCC #33591), MSSA (ATCC #29213), E. coli (ATCC #25922), P. aeruginosa (ATCC #27853), and VRE (ATCC), and MICs were determined using a dilution antimicrobial susceptibility test for aerobic (MRSA, MSSA, E. coli, P. aeruginosa, and VRE) and anaerobic (C. difficile) bacteria. Ecteinamycin was dissolved in DMSO, serially diluted to 10 concentrations (0.0313-32 μg/mL), and tested in a 96-well plate. […] Ecteinamycin and vancomycin were tested in triplicate. Six untreated media controls were included on each plate. For MRSA, MSSA, E. coli, and P. aeruginosa, the plates were incubated at 33° C. for 18 h. For C. difficile, the plate was incubated at 36° C. for 48 h anaerobically and then read visually using a mirror apparatus. All manipulations to the plate were done inside the anaerobe chamber. The MIC was determined as the lowest concentration that inhibited visible growth.

E. coli (ATCC #25922) = test: MIC, dilution antimicrobial susceptibility test; format: cell-based; details: Escherichia coli, ATCC25922, 33° C., 18 h
Procedure: as §1

[1] = test system: P. aeruginosa (ATCC #27853); test: MIC, dilution antimicrobial susceptibility test; format: cell-based; details: Pseudomonas aeruginosa, ATCC27853, 33° C., 18 h
Procedure: as §1

[2] = Pharmacokinetic study in mice, ecteinamycin in plasma; format: in vivo; details: female, FVB, mouse, oral 5 mg/kg vs retro-orbital IV 2.5 mg/kg, dose adjusted
Procedure: An Agilent 1100 LCMS system (ESI-MS positive mode) with a Phenomenex Kinetix C18 column (100×4.6 mm, 2.6 μm) at a flow rate of 0.5 mL/min was used for all analysis. The gradient was from 75% MeOH/25% 1 mM ammonium acetate in H2O to 93% MeOH/7% 1 mM ammonium acetate in H2O in 11 mins, then 93% MeOH/7% 1 mM ammonium acetate in H2O to 100% MeOH for 0.1 min and holding 100% MeOH for 3.9 mins.
A standard curve was constructed using known concentrations of ecteinamycin (1000, 500, 250, 125, 62.50, 31.25, 15.625, 7.8125, 3.90625 ng/mL) in blank human plasma. Linear regression analysis was performed on the peak areas, and the resulting linear equation was used to calculate the ecteinamycin concentrations of quality control (QC) standards of ecteinamycin in human plasma (800, 200, 25, 12.5 ng/mL). The limit of detection was determined to be 31.25 ng/mL, and the limit of quantification was determined to be 62.50 ng/mL.
Eight-to-nine-week-old FVB female mice weighing 20.5 to 25.6 g were used for all studies. […]
Ecteinamycin was formulated with polyethylene glycol (PEG) 300, 25 mM Tris (1:1), pH 8.9. […] Sample quantitation was determined by weighted (R^2) linear regression using a 9-point curve. […] The % oral bioavailability was calculated from the concentration of ecteinamycin (adjusted for dose) in plasma between oral and IV dose: [ecteinamycinoral]/[ecteinamycinIV]×100. […]

[3] = test system: C. difficile (ATCC BAA-1870); test: MIC, anaerobic dilution antimicrobial susceptibility test; format: cell-based; details: Clostridioides difficile
Procedure: as §1

[4] = Lethality of intravenous injection in mice; format: in vivo; details: 5 mg/kg IV
Procedure: Eight-to-nine-week-old FVB female mice weighing 20.5 to 25.6 g were used for all studies. Animals were maintained in accordance with the American Association for Accreditation of Laboratory Care criteria. Animal studies were approved by the University of Wisconsin Animal Care Committee.
Ecteinamycin was formulated with polyethylene glycol (PEG) 300, 25 mM Tris (1:1), pH 8.9. Mice were treated orally at 5 mg/kg or by retro-orbital intravenous injection at 2.5 mg/kg. Retro-orbital intravenous injection at 5 mg/kg was lethal. After 30 mins and 1 h, approximately 400 μL of blood was collected from the chest cavity in BD microtainer tubes with lithium heparin. Blood was centrifuged at 10,000 rpm for 10 mins Fifty μL of supernatant was added to 200 μL of acetonitrile (containing 0.1% formic acid) in a new polypropylene tube, vortexed for 1 min, and centrifuged for 10 mins at 14,000 rpm at 4° C. One hundred μL was transferred to a 96 well polypropylene microplate, 100 μL of H2O was added, and the plate was covered and shaken for 1 min and placed in the autosampler for analysis. […] Sample quantitation was determined by weighted (R^2) linear regression using a 9-point curve. […] The % oral bioavailability was calculated from the concentration of ecteinamycin (adjusted for dose) in plasma between oral and IV dose: [ecteinamycinoral]/[ecteinamycinIV]×100. […]

MSSA (ATCC #29213) = test: MIC, dilution antimicrobial susceptibility test; format: cell-based, Methicillin-sensitive Staphylococcus aureus; details: Methicillin-sensitive Staphylococcus aureus (MSSA); 33° C., 18 h; read-out: MIC
Procedure: as §1

C=C1OC(=O)C(C(=O)CC2OC(C(C)C(O)C(CC)C(=O)C(C)(O)C3CCC(CC)(C4CCC(O)(C(C)OC)C(C)O4)O3)C(C)CC2C)=C1O (stereo not drawn) [ecteinamycin]
MIC (S. cerevisiae): 8 µg/mL (≈ 11.3 µM) | Fold Change in abundance relative to solvent control (E. coli deletion mutants; acrA deletion mutant): 0.087 | Fold Change in abundance relative to solvent control (E. coli deletion mutants; acrB deletion mutant): 0.189 | Fold Change in abundance relative to solvent control (E. coli deletion mutants; atpA deletion mutant): 0.280 | Fold Change in abundance relative to solvent control (E. coli deletion mutants; atpF deletion mutant): 0.207 | Fold Change in abundance relative to solvent control (E. coli deletion mutants; csgE deletion mutant): 0.369 | Fold Change in abundance relative to solvent control (E. coli deletion mutants; dksA deletion mutant): 0.187 | Fold Change in abundance relative to solvent control (E. coli deletion mutants; fis deletion mutant): 0.416 | Fold Change in abundance relative to solvent control (E. coli deletion mutants; hupA deletion mutant): 0.518 | Fold Change in abundance relative to solvent control (E. coli deletion mutants; kdpD deletion mutant): 0.374 | Fold Change in abundance relative to solvent control (E. coli deletion mutants; ldcA deletion mutant): 0.341 | Fold Change in abundance relative to solvent control (E. coli deletion mutants; rpoS deletion mutant): 0.350 | Fold Change in abundance relative to solvent control (E. coli deletion mutants; sapB deletion mutant): 0.241 | Fold Change in abundance relative to solvent control (E. coli deletion mutants; sapD deletion mutant): 0.197 | Fold Change in abundance relative to solvent control (E. coli deletion mutants; trkA deletion mutant): 0.145 | Fold Change in abundance relative to solvent control (E. coli deletion mutants; ycdR deletion mutant): 0.287 | Fold Change in abundance relative to solvent control (E. coli deletion mutants; yhjK deletion mutant): 0.485 | Fold Change in abundance relative to solvent control (E. coli deletion mutants; yraP deletion mutant): 0.365 | MIC (VRE (ATCC)): 0.25 µg/mL (≈ 0.353 µM) | MIC (E. coli (ATCC #25922)): 16 µg/mL (≈ 22.6 µM) | MIC [1]: 8 µg/mL (≈ 11.3 µM) | bioavailability at 30 min ([2]; after 30 mins): 10.9% | bioavailability at 1 h ([2]; after 1 h): 29.3% | MIC ([3]; ATCCBAA1870): ≤ 0.031 µg/mL | MIC ([3]; ATCCBAA1870, 36° C., 48 h anaerobically): ≤ 0.0313 µg/mL | lethality of retro-orbital intravenous injection [4]: lethal | MIC (MSSA (ATCC #29213)): 0.125 µg/mL (≈ 0.176 µM)

— patent publication US10660874B2, “Ecteinamycin, compositions and uses thereof” (Wisconsin Alumni Research Foundation, priority 2014, dated 2020)
